Measured values from ChEMBL document CHEMBL4507268 (2021).

Assays:
Settings in all cases: Compound concentration 1000.0 nM
[1] = biological target: T1, Serine/threonine-protein kinase 3 (Homo sapiens) (UniProt Q13188)
T1 sequence (whole entry): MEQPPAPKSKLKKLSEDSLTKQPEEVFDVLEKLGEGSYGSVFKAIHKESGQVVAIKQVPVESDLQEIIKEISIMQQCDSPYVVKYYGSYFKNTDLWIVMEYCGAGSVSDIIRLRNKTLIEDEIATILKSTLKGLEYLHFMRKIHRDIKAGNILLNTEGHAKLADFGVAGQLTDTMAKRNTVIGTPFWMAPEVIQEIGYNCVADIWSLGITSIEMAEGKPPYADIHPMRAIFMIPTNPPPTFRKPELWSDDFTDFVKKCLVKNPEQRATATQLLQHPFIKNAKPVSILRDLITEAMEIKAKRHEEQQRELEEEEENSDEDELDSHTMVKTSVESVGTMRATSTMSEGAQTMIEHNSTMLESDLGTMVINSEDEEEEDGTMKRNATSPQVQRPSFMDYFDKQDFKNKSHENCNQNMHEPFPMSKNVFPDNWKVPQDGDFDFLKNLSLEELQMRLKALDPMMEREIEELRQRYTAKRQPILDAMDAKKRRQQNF

[2] = biological target: T2, Serine/threonine-protein kinase 4 (Homo sapiens) (UniProt Q13043)
T2 sequence (whole entry): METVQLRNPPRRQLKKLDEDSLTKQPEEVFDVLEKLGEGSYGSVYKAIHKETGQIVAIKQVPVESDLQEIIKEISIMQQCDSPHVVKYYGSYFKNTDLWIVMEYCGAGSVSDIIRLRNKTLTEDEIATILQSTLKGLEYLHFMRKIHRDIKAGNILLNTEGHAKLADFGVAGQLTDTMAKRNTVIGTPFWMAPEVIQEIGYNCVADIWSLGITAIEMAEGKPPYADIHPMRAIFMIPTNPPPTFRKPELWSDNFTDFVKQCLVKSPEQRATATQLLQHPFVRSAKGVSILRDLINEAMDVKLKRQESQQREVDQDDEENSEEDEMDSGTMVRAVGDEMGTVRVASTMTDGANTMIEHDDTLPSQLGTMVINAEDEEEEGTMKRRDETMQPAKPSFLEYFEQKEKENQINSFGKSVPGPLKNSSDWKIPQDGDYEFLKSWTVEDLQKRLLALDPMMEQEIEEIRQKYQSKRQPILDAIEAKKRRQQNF

[3] = system: Tyrosine-protein kinase ABL1 (Homo sapiens), P00519 [F317I]
[4] = biological target: MAP/microtubule affinity-regulating kinase 3 (Homo sapiens) (UniProt P27448)
[5] = system: Leucine-rich repeat serine/threonine-protein kinase 2 (Homo sapiens), Q5S007 [G2019S]
[6] = biological target: T3, Serine/threonine-protein kinase ULK2 (Homo sapiens) (UniProt Q8IYT8)
T3 sequence (whole entry): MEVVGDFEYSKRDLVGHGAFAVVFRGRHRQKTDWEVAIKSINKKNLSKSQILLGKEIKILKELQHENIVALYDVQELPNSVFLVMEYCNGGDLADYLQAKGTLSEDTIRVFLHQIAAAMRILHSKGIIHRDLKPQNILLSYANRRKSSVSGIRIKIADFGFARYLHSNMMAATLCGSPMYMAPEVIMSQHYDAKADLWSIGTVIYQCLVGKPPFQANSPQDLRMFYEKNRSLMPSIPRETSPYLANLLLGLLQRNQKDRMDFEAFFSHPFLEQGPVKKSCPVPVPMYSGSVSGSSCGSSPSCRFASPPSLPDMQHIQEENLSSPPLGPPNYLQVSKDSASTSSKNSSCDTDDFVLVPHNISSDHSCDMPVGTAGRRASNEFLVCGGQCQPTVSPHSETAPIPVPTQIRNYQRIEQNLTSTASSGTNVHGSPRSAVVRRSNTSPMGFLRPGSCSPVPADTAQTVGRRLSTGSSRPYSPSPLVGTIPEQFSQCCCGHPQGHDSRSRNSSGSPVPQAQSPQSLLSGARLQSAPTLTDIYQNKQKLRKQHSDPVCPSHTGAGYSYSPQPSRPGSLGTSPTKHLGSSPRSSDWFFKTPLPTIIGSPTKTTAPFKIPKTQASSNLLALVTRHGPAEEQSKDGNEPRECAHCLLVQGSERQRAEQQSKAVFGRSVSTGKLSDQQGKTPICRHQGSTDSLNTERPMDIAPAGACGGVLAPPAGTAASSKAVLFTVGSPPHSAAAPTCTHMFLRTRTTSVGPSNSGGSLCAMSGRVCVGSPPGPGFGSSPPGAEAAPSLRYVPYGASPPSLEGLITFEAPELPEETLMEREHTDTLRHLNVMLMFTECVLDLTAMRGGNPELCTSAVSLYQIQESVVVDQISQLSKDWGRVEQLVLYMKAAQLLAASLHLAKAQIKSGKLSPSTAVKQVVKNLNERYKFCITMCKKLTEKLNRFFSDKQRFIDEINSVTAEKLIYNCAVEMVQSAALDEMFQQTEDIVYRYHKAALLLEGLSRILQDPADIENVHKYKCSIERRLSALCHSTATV

[7] = biological target: Cyclin-dependent kinase 2 homolog (Plasmodium falciparum (isolate 3D7)) (UniProt P61075)
[8] = biological target: Calcium/calmodulin-dependent protein kinase type 1 (Homo sapiens) (UniProt Q14012)
[9] = system: Epidermal growth factor receptor (Homo sapiens), P00533 [UNDEFINED MUTATION]
[10] = biological target: Leukocyte tyrosine kinase receptor (Homo sapiens) (UniProt P29376)
[11] = biological target: Phosphatidylinositol 4-phosphate 3-kinase C2 domain-containing subunit beta (Homo sapiens) (UniProt O00750)
[12] = biological target: Calcium/calmodulin-dependent protein kinase type II subunit beta (Homo sapiens) (UniProt Q13554)
Sequence of Calcium/calmodulin-dependent protein kinase type II subunit beta (Homo sapiens) (Q13554 whole entry): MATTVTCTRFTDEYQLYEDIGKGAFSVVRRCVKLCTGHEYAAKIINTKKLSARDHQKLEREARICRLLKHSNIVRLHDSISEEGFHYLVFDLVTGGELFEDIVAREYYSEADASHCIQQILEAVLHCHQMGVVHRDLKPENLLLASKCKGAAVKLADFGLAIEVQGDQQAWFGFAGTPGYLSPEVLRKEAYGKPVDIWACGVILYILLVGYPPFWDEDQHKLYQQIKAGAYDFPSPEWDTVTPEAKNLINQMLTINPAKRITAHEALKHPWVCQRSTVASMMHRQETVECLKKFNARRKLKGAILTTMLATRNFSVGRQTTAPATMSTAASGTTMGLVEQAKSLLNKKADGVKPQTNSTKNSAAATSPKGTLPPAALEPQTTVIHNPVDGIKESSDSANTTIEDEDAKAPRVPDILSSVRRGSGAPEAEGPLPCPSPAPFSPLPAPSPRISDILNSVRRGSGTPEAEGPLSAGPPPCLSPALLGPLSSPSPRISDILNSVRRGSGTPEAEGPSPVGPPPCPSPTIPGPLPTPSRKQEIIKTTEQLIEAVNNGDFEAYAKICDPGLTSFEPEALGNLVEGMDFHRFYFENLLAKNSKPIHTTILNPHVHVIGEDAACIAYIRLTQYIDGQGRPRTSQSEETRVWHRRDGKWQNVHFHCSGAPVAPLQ

Sequence of Leucine-rich repeat serine/threonine-protein kinase 2 (Homo sapiens), Q5S007 [G2019S] (Q5S007 whole entry G2019S): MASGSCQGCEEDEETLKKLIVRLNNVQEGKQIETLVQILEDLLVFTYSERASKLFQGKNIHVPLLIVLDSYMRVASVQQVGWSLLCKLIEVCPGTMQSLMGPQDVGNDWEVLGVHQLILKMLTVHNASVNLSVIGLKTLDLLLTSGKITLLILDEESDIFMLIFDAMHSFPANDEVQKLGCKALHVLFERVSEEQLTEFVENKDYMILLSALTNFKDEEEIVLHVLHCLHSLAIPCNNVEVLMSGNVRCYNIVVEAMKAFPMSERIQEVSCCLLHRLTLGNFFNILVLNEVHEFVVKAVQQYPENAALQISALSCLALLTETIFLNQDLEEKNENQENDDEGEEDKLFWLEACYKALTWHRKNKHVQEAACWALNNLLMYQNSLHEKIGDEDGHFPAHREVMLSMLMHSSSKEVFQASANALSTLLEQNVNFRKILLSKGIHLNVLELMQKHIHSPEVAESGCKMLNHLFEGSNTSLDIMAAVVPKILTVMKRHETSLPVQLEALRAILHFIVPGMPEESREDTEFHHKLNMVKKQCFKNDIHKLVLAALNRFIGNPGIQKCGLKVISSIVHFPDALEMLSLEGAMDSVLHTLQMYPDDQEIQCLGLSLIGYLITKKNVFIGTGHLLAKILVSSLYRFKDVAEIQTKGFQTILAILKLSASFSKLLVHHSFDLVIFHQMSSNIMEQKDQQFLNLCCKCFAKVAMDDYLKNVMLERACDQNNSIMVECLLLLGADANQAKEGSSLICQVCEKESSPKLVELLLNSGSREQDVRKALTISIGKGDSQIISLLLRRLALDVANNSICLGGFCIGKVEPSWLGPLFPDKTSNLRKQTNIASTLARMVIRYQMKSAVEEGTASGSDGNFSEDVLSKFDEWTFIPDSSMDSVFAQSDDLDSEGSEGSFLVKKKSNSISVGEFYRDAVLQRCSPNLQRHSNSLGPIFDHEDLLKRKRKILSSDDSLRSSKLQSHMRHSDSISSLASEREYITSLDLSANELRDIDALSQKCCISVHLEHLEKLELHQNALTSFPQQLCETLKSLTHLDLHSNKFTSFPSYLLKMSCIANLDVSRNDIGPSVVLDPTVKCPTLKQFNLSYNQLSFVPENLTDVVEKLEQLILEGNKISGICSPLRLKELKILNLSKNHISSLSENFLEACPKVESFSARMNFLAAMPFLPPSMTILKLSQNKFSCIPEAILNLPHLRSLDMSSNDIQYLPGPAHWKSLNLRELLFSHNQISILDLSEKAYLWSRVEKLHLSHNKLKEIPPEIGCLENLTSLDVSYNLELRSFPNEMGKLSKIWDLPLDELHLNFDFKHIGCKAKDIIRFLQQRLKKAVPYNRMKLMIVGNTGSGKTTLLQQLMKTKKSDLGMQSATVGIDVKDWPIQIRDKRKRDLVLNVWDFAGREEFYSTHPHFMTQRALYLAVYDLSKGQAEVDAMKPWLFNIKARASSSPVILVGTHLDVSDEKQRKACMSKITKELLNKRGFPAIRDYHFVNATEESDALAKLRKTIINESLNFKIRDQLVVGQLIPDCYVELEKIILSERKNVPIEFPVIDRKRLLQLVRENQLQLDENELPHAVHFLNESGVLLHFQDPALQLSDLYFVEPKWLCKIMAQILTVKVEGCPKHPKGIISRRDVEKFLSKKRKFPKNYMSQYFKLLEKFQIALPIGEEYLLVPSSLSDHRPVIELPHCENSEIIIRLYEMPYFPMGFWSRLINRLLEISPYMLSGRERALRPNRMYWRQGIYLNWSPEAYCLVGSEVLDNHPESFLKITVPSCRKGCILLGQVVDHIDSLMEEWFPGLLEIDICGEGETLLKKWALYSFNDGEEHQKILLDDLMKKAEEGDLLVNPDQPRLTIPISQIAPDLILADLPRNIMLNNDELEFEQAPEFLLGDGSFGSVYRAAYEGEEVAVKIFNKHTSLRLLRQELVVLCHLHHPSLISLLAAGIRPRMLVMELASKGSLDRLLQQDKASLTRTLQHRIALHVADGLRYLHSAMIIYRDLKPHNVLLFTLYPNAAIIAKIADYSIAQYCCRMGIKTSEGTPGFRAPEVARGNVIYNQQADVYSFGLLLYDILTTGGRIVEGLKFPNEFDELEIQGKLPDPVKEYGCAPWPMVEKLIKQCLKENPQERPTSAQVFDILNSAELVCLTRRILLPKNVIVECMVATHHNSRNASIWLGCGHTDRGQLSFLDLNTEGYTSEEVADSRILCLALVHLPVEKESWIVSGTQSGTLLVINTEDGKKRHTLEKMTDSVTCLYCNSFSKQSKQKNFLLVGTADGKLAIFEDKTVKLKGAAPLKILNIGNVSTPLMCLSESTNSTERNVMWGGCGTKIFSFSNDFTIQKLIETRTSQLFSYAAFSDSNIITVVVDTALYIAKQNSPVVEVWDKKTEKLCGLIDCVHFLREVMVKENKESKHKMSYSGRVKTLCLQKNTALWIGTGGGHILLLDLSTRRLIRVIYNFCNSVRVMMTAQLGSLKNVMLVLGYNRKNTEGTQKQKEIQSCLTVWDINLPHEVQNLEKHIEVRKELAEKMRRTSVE
Sequence of Leukocyte tyrosine kinase receptor (Homo sapiens) (P29376 whole entry, the tested form may be a part): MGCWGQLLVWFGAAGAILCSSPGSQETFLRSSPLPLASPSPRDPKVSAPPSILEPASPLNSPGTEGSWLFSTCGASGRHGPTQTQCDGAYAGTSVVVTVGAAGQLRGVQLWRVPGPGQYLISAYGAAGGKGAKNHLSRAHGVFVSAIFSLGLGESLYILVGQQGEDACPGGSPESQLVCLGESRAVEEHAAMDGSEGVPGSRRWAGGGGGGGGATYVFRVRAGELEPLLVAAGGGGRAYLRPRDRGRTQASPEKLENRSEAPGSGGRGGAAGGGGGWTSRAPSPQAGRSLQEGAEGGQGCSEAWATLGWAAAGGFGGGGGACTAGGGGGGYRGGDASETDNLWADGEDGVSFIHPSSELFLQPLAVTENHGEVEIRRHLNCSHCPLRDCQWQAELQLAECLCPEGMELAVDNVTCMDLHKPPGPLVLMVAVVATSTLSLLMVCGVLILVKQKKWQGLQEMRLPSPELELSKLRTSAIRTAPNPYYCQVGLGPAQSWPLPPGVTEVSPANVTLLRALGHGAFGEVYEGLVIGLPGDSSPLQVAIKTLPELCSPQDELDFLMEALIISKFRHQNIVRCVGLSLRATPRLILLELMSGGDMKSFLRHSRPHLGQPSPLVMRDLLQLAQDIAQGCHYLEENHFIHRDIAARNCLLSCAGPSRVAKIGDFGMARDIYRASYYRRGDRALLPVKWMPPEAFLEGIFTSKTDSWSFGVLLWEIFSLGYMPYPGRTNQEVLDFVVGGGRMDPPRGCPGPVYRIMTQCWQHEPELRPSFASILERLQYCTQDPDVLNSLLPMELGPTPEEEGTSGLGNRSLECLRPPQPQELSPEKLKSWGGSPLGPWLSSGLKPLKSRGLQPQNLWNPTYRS
Sequence of Calcium/calmodulin-dependent protein kinase type 1 (Homo sapiens) (Q14012 whole entry, looked up): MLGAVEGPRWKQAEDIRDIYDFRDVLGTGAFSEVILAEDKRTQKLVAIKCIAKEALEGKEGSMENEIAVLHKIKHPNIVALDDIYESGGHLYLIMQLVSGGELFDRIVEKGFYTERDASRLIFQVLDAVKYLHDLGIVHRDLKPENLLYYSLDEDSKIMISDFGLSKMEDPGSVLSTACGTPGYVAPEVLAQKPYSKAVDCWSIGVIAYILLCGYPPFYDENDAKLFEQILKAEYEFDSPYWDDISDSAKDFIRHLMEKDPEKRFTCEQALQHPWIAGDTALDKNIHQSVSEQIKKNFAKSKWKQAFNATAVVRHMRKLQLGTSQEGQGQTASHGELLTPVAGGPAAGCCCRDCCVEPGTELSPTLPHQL
Sequence of Cyclin-dependent kinase 2 homolog (Plasmodium falciparum (isolate 3D7)) (P61075 whole entry): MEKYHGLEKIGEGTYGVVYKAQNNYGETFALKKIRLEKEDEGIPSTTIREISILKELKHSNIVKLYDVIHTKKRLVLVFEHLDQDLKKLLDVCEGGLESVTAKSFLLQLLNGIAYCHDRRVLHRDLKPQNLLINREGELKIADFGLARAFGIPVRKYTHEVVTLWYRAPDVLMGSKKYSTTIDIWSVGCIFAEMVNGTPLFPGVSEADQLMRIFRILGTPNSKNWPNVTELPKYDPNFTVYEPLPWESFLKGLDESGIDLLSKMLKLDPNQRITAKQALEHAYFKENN

| SMILES | residual activity [1] | residual activity [2] | residual activity [3] | residual activity [4] | residual activity [5] | residual activity [6] | residual activity [7] | residual activity [8] | residual activity [9] | residual activity [10] | residual activity [11] | residual activity [12] |
| --- | --- | --- | --- | --- | --- | --- | --- | --- | --- | --- | --- | --- |
| Cc1nc(C2CCN(C(=O)c3ccc(OC(F)(F)F)cc3N)CC2)c2ncc(N3CCN(C)CC3)cc2n1 [BAY-693] | 79% | 85% | 76% | 89% | 100% | 100% | 100% | 100% | 70% | 86% | 86% | 100% |
| CN1CCN(c2cnc3c(C4CCN(C(=O)c5ccc(OC(F)(F)F)cc5N)CC4)ncnc3c2)CC1 [BAY-885] | 82% | 84% | 99% | 93% | 100% | 100% | 100% | 100% | 83% | 49% | 98% | 100% |
